The nature of test [1]: Heparin-binding assay on nitrocellulose sheets. As for the experimental part:
The assay for heparin binding utilizes nitrocellulose sheets as substrata to bind peptides or proteins to be tested for heparin binding activity. Peptides I and II or intact fibronectin (fn) were solubilized in 50 mM (NH4)2 CO3 and diIuted to the concentrations indicated in FIGS. 2 and 3. Nitrocellulose sheets which had been presoaked in 50 mM NH4 CO3 were placed in a 96 well dot blot apparatus (Bethesda Research Laboratories Bethesda, Md.), and 250 μl of various concentrations of each peptide were aspirated through the wells. Each well was then washed three times with binding buffer (10 mM Tris-HCl, pH 8.0, 0.15 M NaCl), and the filters were removed and allowed to air dry overnight. The filters were then equilibriated for 5 minutes at room temperature in binding buffer which contained 10 mM CaCl2. ^3 H-heparin was then diluted to a concentration of 50,000 cpm/ml in binding buffer (with Ca^++), and nitrocellulose sheets were incubated in the presence of this mixture for 2 hours. The filters were then washed four times with binding buffer, and air dried. The individual spots of samples were cut out of the nitrocellulose and bound heparin was quantitated with a liquid scintillation counter.

Test [2] relates to Bovine aortic endothelial cells. Put plainly: Aortic endothelial cell adhesion assay. As to conditions: coating concentration 5 μg/ml, 90 minutes. In kind it is cell-based. As for the experimental part: Bovine aortic encothelial cells were isolated according to the following protocol. Aortas were obtained from a local slaughterhouse, washed in cold phosphate buffered saline (PBS) (136 mM NaCI, 2.6 mM KCl, 15.2 mM Na2 HPO4, pH 7.2) and processed within 2 hours. Crude collagenase (CLS III, 125-145 units per mg dry weight, Cooper Biomedical) was used at 2 mg/ml in Dulbecco's modified Eagle's medium (DMEM) (GIBCO). The vessel was clamped at the distal end, filled with the collagenase-PBS solution and digestion was carried out for 10 minutes. The lumenal contents were harvested, followed by the addition of fresh collagenase for two additional 10-minute periods. The enzyme-cell suspensions were added to an equal volume of DMEM containing 10% fetal bovine serum (FBS) to inhibit the enzyme and spun in a centrifuge at 400×g for 10 minutes. The resulting cell pellet was resuspended in DMEM containing 10% FBS, 100 units/ml of penicillin G, 100 μg/ml of streptomycin and 100 μg/ml of crude fibroblast growth factor. Cells are cultured in 75 cm^2 flasks in a humidified 5% CO2 atmosphere at 37° C. Cultures were fed twice a week with the same medium and cells were used in assays when approximately 75% confluent. […]
Adhesion was measured using 96 well microtiter plates adsorbed with fibronectin or peptides I and II. […] The solubilized cells were then quantitated using a liquid scintillation counter. […]

The subject of test [3] is K1735M4 metastatic melanoma cells. As to conditions: for Tumor Cell Adhesion, Adherent Cells: melanoma cells, one hour.
Description: The cells were cultured in Dulbecco's Modified Eagle's Medium containing 5% heat inactivated fetal calf serum. The cultures were grown in 37° C. incubators with a humidified atmosphere containing 5% CO2. Cells were subcultured twice weekly by releasing cells gently from the flask, using 0.05% trypsin and 1 mM EDTA.
The melanoma cells were pulsed in the same fashion as the endothelial cells described hereinabove, except that 2 μCi/ml ^3 HTd(tritiated thymidine) was added to each culture instead of amino acids. The labeled cells were harvested as described for the endothelial cells. The cell adhesion assay was identical to that described hereinabove for the bovine aortic endothelial cell assay.
For test [4], the system named is CNS neurons from spinal cords of 6-day chick embryos. Put plainly: Neurite outgrowth assay, CNS neurons. In kind it is cell-based. As for the experimental part:
Peptides I, II, IIa, III, CSI or intact fibronectin were diluted in Voller's buffer (0.05M Carbonate buffer, pH 9.6) and 100 μl of each concentration was dipensed into 96 well tissue culture plates in triplicate. The plates were then placed in a sterile hood overnight to evaporate the buffer and to dry the peptides onto the plate. The following morning, 200 μl of phosphate-buffered saline (PBS) containing 5 mg/ml bovine serum albumin (PBS/BSA) were added to each well and the plates were incubated for an additional 3 hours. At that point, the PBS/BSA was aspirated and cells in the appropriate media were added to each well.
Embryonic CNS nerve cell cultures were prepared by the method of Rogers et al., Devel. Biol., 98, 212-220 (1983). Briefly, spinal cords from 6-day chick embryos were isolated and their dorsal halves removed and placed Ca^++ -Mg^++ free (CMF) Hank's balanced salt solution for 10 minutes at 37° C. Only the ventral portions, containing predominantly motor neurons, were prepazed for culture. The cords were then dissociated in 0.25% trypsin (Bactotrypsin, Difco) in CMF Hanks for 25 minutes at 37° C. […] The number of neurons with neurites was quantitated by randomly sampling 10 fields with the aid of a dissecting microscope. […]

Test [5] is described as follows: Solid phase heparin-binding assay on Immulon C plates. The protocol: Both peptides IIa and CS I were then compared for relative heparin-binding activity. Plastic Immulon C plates (Dynatech, Alexandria, Va.) were adsorbed with 100 μl in triplicate) of the indicated levels of peptides IIa, CS I or BSA as described. The ability of the 33 kD fragment to bind heparin was also determined, for comparison, although due to the relative size of this fragment compared with the peptides, different coating concentrations were used. The actual coating levels of the 33 kD fragment were 4, 20, 100 and 500 μg/ml. Following the blocking of nonspecific binding sites with BSA, the ability of these various substrata to bind ^3 H-heparin was determined by the addition of approximately 4,000 disintegrations per minute (dpm) of this ligand. All conditions of the assay were as described in U.S. patent application Ser. No. 89,073, the disclosure of which is incorporated by reference herein.
The three peptides derived from peptide Ila and intact peptide IIa, were adsorbed to Immulon C plates at the indicated concentrations (100 μl/ well) in triplicate and tested for the ability to bind ^3 H-heparin as described hereinabove. The results of this study are summarized on FIG. 5. […] Rather, a specific primary structure is crucial for this activity. […]

Like-named read-outs stand apart in the source and are kept apart here.

In the case of Fibronectin, in test [1], the “3H-heparin binding (in words)” value is reported as “bound ^3 H-heparin in a concentration dependent manner”. Also, in test [1], the “Concentration at which maximum 3H-heparin binding was observed” value was 10^-6 M. The “Adherent Cells” value in test [2] is recorded as 13,714 Counts Per Minute. The “Tumor Cell Adhesion, Adherent Cells” value in test [3] (coating concentration 1 μg/ml) was 4700 Counts Per Minute; in test [3] (coating concentration 10 μg/ml), 7900 Counts Per Minute; in test [3] (coating concentration 50 μg/ml), 11,000 Counts Per Minute; in test [3] (coating concentration 100 μg/ml), 9700 Counts Per Minute.

For “asp-glu-leu-pro-gln-leu-val-thr-leu-pro-his-pro-asn-leu-his-gly-pro-glu-ile-leu-asp-val-pro-ser-thr [Peptide CS I, reference compound]”, the “Promotion of neurite extension by CNS neurons (in words)” value in test [4] is reported as “CNS neurons appeared to be preferably stimulated by peptide CS I”. In test [3], the “Promotion of melanoma cell adhesion (in words)” value was “promoted the adhesion of melanoma cells in culture”. Further, the “Melanoma Cell Adhesion, Percent Adhesion” value is recorded as 71.7% in test [3] (concentration 80 μg/ml) and 71.0% in test [3] (concentration 400 μg/ml). Also, the “3H-heparin binding (in words)” value in test [5] is on record as “failed to bind to heparin at any concentration that was tested”.
